Where two headings read alike, the source gives them in different places.
What was measured:
[1] = target: T1, P. berghei apicoplast DNA polymerase (Pb-apPOL) (Plasmodium berghei, UniProt A0A509ALK1); assay: In vitro DNA polymerase inhibition assay, Pb-apPOL; type: biochemical; details: Table 2
T1 sequence (A0A509ALK1 1182-1809): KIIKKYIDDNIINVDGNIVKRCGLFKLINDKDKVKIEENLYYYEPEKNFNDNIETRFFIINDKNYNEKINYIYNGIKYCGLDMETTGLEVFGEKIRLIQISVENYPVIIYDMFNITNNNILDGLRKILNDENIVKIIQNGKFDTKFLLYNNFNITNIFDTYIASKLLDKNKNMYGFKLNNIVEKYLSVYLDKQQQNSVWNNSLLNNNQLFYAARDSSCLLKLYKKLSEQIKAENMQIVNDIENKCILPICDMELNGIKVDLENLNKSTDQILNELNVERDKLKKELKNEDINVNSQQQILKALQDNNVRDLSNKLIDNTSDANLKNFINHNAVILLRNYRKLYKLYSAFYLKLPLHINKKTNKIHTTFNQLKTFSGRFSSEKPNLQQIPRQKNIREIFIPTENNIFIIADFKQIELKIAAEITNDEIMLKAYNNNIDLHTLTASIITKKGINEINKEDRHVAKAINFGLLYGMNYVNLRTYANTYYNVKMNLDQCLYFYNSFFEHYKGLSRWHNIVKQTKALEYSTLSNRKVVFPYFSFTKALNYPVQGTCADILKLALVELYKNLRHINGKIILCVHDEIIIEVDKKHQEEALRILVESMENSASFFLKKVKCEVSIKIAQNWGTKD
Method: (§1) Codon-optimized, exonuclease-deficient Pf-apPOL was overexpressed in E. coli BL21 (DE3) and purified as described. The protein was dialysed against two, 1-liter changes of 20 mM Tris-HCl (pH 8.0), 400 mM NaCl, and 20% glycerol. Plasmodium bergei and Babesia bovis apPOLs (Pb-apPOL and Bb-apPOL, respectively) were codon-optimized, expressed, and purified as for Pf-apPOL[15]. Bacteriophage T4 DNA polymerase was purified as described. The DNA oligonucleotides used to make the high-throughput substrate were obtained from Integrated DNA Technologies. Deoxynucleotides were purchased from Strategene. All other materials came from Fisher Scientific.
The HT assay employs a molecular beacon, a stem-loop DNA template with a Cy3 dye and the Black Hole Quencher on the 3′ and 5′ ends of the DNA, respectively. Pf-apPOL concentration is based on a calculated absorptivity of ε280 = 56750 M^−1 cm^−1. Reactions were carried out at 25 °C, using Corning 3575 […] (well-volume, 20 µL). Assays testing for compound inhibition composed of reaction buffer (pH 7.9 in 50 mM potassium acetate, 20 mM Tris-acetate and 10 mM magnesium acetate), Pf-apPOL (20 nM), DNA substrate (20 nM), dNTPs (6 µM), and compound (10 µM in DMSO). The DNA and nucleotide substrates (dNTPs) were at concentrations of 20 nM and 6 µM, respectively, in the assay. Pf-apPOL was incubated in the reaction buffer with dNTPs and the compound of interest (10 µM, in the assay) at 25 °C for 10 min. The DNA substrate was then added and the reaction was allowed to proceed for 90 min at 25 °C.
In the above, Min is the average of fluorescence emission of the negative controls (substrate only), Max the average fluorescence emission from the positive controls (enzyme + substrate), and Test the emission from the assays in the presence of compounds (enzyme + compound + substrates). Dose-response confirmation assays were performed under similar conditions as the primary screen, but monitoring fluorescence at 10, 90, and 180 min. Tested concentrations of compounds were 2.5, 10, 20, 40, and 80 µM. The IC50 of each compound was determined using Equation (2): (2) […] Vmax/(1+ (I/IC50)^n)
We tested the ability of the 102 compounds to kill P. falciparum parasites cultured in human red blood cells. Due to the number of compounds, we used a single inhibitor concentration of 20 µM and performed experiments in triplicate. These single-dose assays identified 9 compounds that inhibited parasite growth by more than 50%. These compounds were then tested in a dose-response format against chloroquine resistant P. falciparum parasites (Dd2) and the resulting data were fit to a sigmoidal growth inhibition curve to determine EC50 values (Figure 5, Table 2). […] Inhibition of Pb-apPOL is a desired feature because it is likely that future in vivo studies will be performed in the mouse model for Malaria. […] The in vitro polymerase assays identified 5 compounds that were potent inhibitors of all three apicoplast polymerases and a single compound that inhibited Pf-apPOL and Bb-apPOL but not Pb-apPOL (Table 2). Finally, to determine if the compounds were killing the parasites solely via apicoplast disruption, the dose-response curves were also performed with 1 mM isopentylpyrophosphate (IPP) in the growth media (Table 2). […] At this time, it is unclear what the non-apicoplast target(s) may be. One intriguing possibility is that these compounds may be targeting both the apicoplast and the mitochondrial DNA polymerases. […]

[2] = system: chloroquine resistant P. falciparum parasites (strain Dd2); assay: Parasite growth inhibition assay in human red blood cells (flow cytometry, acridine orange); type: cell-based; details: Plasmodium falciparum, Erythrocyte
Method: The chloroquine resistant P. falciparum parasites (strain Dd2) were cultured in de-identified, IRB-exempt human red blood cells (RBCs) obtained from the American Red Cross and parasite cultures were maintained as described. Parasitaemia (percentage of total RBCs infected) was measured by flow cytometry on an Attune NxT (ThermoFisher) by nucleic-acid staining of cultured RBCs with phosphate-buffered saline (PBS) containing 0.8 µg ml^−1 acridine orange. We began by determining percent growth inhibition at single compound dose (20 µM) for the 102 non-toxic compounds. […] The experiments were initiated with a starting parasitaemia of ∼1% and parasitaemia was measured 72 and 96 h post compound addition. Growth was normalised to parasite cultures with carrier only (DMSO).
(§2) We tested the ability of the 102 compounds to kill P. falciparum parasites cultured in human red blood cells. Due to the number of compounds, we used a single inhibitor concentration of 20 µM and performed experiments in triplicate. […] These compounds were then tested in a dose-response format against chloroquine resistant P. falciparum parasites (Dd2) and the resulting data were fit to a sigmoidal growth inhibition curve to determine EC50 values (Figure 5, Table 2). […] Finally, to determine if the compounds were killing the parasites solely via apicoplast disruption, the dose-response curves were also performed with 1 mM isopentylpyrophosphate (IPP) in the growth media (Table 2). […] Very little is known regarding mitochondrial DNA replication in P. falciparum; however, signal sequence identification algorithms have predicted that the other bacterial A-family DNA polymerase residing in P. falciparum is targeted to the mitochondria (PF3D7_0625300)[29]. […] We are currently in the process of cloning and expressing this putative mitochondrial DNA polymerase to determine the effect of these compounds on its activity.

[3] = target: Babesia bovis apicoplast DNA polymerase (Bb-apPOL); assay: In vitro DNA polymerase inhibition assay, Bb-apPOL; type: biochemical; details: Table 2
Method: as §1, §2

[4] = Dd2 parasites in human RBCs, dose-response, no IPP, read-out: EC50
[5] = Dd2 parasites, 1 mM isopentylpyrophosphate (IPP) in the growth media, read-out: EC50 + IPP

CCOc1nc2cccc(C(=O)OC(C)OC(=O)OC3CCCCC3)c2n1Cc1ccc(-c2ccccc2-c2nnn[nH]2)cc1 (stereo not shown) [Molecule 94]
IC50 [1]: 13.9 ± 1.6 µM | EC50 [2, 4]: 4.6 ± 0.2 µM | EC50 [2, 5]: 3.7 ± 0.5 µM | IC50 [3]: 30 ± 3 µM

OC(C#Cc1ccccc1)c1ccco1 (stereo not shown) [Molecule 95]
IC50 [1]: 8.6 ± 0.7 µM | EC50 [2, 4]: 7.5 ± 0.5 µM | EC50 [2, 5]: 7.4 ± 0.4 µM | IC50 [3]: 2.5 ± 0.2 µM

COc1ccc(CNC(=O)Cn2nc3c(c2NC(=O)Cc2cccs2)CSC3)cc1 [Molecule 55]
IC50 [1]: 51.9 ± 3.5 µM | EC50 [2, 4]: 3.5 ± 0.3 µM | EC50 [2, 5]: 4.3 ± 0.2 µM | IC50 [3]: 1.5 ± 1 µM

O=C(O)c1ccc(-c2nc3cc(-c4ccc5nc(-c6ccc(C(=O)O)cc6)[nH]c5c4)ccc3[nH]2)cc1 [Molecule 1]
IC50 [1]: 7.1 ± 0.6 µM | EC50 [2, 4]: 8.6 ± 0.4 µM | EC50 [2, 5]: 9.3 ± 0.5 µM | IC50 [3]: 3.7 ± 0.2 µM

From article PMC9090415, “Discovery of small molecule inhibitors of Plasmodium falciparum apicoplast DNA polymerase” (Journal of Enzyme Inhibition and Medicinal Chemistry, 2022)
